Measured values as given in PubChem BioAssay (NCI).
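Values below derive from 48-hour exposures of cells grown in 96-well plates, with endpoints linearly interpolated between the two concentrations bracketing the appropriate inhibition level. The concentration for 50% growth inhibition is given as GI50. TGI denotes the concentration required for complete inhibition of growth.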

Columns and labels:
Experiment in all cases: NCI-60 cell line screen, 48 h
[1] = system: HOP-92 NSCLC
[2] = system: LOX IMVI melanoma
[3] = system: NCI-H23 lung
[4] = system: NCI-H460 lung
[5] = system: NCI/ADR-RES ovarian
[6] = system: SK-MEL-5 melanoma
[7] = system: SN12C renal
[8] = system: T-47D breast
[9] = system: HS 578T breast
[10] = system: SK-MEL-2 melanoma

Compound | TGI [1] | TGI [2] | TGI [3] | TGI [4] | TGI [5] | TGI [6] | TGI [7] | TGI [8] | TGI [9] | TGI [10] | GI50 [1] | GI50 [2]
c1ccc(CCN2CCc3[nH]c4ccccc4c3C2)cc1 | 34.6 µM | 35.4 µM | > 100 µM | 30.9 µM | 36.9 µM | 33.9 µM | 62.2 µM | 51.5 µM | – | – | – | –
CCOC(=O)C(NC(=O)N(C1=NCC(C)S1)C1CCCCC1)(OC)C(F)(F)F (configuration not stated) | > 100 µM | 60.8 µM | > 100 µM | > 100 µM | > 100 µM | 66.8 µM | 29.3 µM | > 100 µM | > 100 µM | > 100 µM | – | –
COc1nc2c(c(=O)n1C)N[C@H]1[C@H](OC(C)=O)[C@@H](OC(C)=O)CO[C@H]1N2 | > 100 µM | > 100 µM | – | > 100 µM | > 100 µM | > 100 µM | > 100 µM | > 100 µM | > 100 µM | > 100 µM | – | –
c1ccc(CCNCc2ccco2)nc1 | > 100 µM | > 100 µM | > 100 µM | > 100 µM | > 100 µM | > 100 µM | > 100 µM | > 28.5 µM | > 100 µM | > 100 µM | – | –
C=C(CCC(C)C1CCC2C3=C(C(=O)CC21C)C1(C)CCC(=O)[C@@H](C)C1CC3=O)C(C)C(=O)O (some centres not stated) | 78.7 µM | 33.8 µM | > 100 µM | > 100 µM | > 100 µM | > 100 µM | > 100 µM | > 100 µM | > 100 µM | > 100 µM | – | –
Nc1nc(-c2ccccc2N=NN2CCCC2)nc2ccccc12 | 21.3 µM | 3.77 µM | 8.06 µM | 17.9 µM | 12.2 µM | 17.8 µM | 3.43 µM | 19.4 µM | 18 µM | 28.8 µM | – | –
Cc1ccncc1.F[B-](F)(F)F.[Pt+2].c1ccc(-c2cccc(-c3ccccn3)n2)nc1 | > 100 µM | > 88.4 µM | > 88 µM | 23.3 µM | 11.7 µM | 21.7 µM | > 100 µM | 42.9 µM | > 45 µM | > 100 µM | 10.2 µM | 1.28 µM
O=C1CCC2(CCO1)OCCO2 | – | > 100 µM | > 100 µM | > 100 µM | > 100 µM | > 100 µM | > 100 µM | > 100 µM | > 100 µM | > 100 µM | – | –
O=CC(O)C(O)C(O)C(O)C(=O)NCCCCCCCCCCCCNC(=O)C(O)C(O)C(O)C(O)C=O (configuration not stated) | > 100 µM | > 100 µM | > 100 µM | > 100 µM | > 100 µM | > 100 µM | – | > 100 µM | > 100 µM | > 100 µM | – | –
C(=C\c1cccc(/C=C/c2ccccn2)n1)/c1ccccn1 | > 100 µM | > 100 µM | > 100 µM | > 100 µM | > 100 µM | > 100 µM | > 100 µM | > 100 µM | 44.3 µM | > 100 µM | – | –
CCc1c(Cc2cccc3ccccc23)n2c(nc1=O)SCC2OCCO (configuration not stated) | 34.7 µM | > 100 µM | > 100 µM | > 100 µM | > 100 µM | > 100 µM | > 100 µM | > 100 µM | > 100 µM | > 100 µM | – | –
